Reference: the supplement of paper PMC8253809

Key:
HGGX6 = H3.3 G34R paediatric high-grade glioma line; assay: growth inhibition relative to DMSO (0) and positive control (1) (fraction); higher = more growth inhibition
Experimental: (§1)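 Paxalisib (GDC0084) x mirdametinib (PD0325901) dose matrix on pHGG cell lines and astrocyte controls, 7 days, adherent 384-well. CellTiter-Glo RLU was normalised (no log2) to fractional activity between DMSO (0) and the positive control (1). Each combination was tested in two plate orientations.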

HABS = astrocyte control; assay: as above
Experimental: as §1

O=C(NOC[C@H](O)CO)c1ccc(F)c(F)c1Nc1ccc(I)cc1F + CC1(C)OCCn2c1nc1c(N3CCOCC3)nc(-c3cnc(N)nc3)nc12 [GDC0084]
growth inhibition
Conditions	compound 1 concentration 0.009766 µM	compound 1 concentration 0.01953 µM	compound 1 concentration 0.03906 µM	compound 1 concentration 0.07812 µM	compound 1 concentration 0.15625 µM	compound 1 concentration 0.3125 µM	compound 1 concentration 0.625 µM	compound 1 concentration 1.25 µM	compound 1 concentration 5 µM	compound 1 concentration 20 µM
HABS, compound 2 concentration 0.03906 µM	-0.277	-0.277	-0.363	-0.35	-0.36	-0.157	0.0702	0.206	0.655	0.785
HABS, compound 2 concentration 0.07812 µM	-0.0837	-0.115	-0.185	-0.276	-0.182	-0.0585	0.174	0.282	0.686	0.84
HABS, compound 2 concentration 0.15625 µM	0.00867	-0.00819	-0.125	-0.152	-0.102	0.0679	0.212	0.368	0.765	0.893
HABS, compound 2 concentration 0.3125 µM	0.0584	0.00491	-0.0298	-0.035	-0.004	0.119	0.251	0.39	0.784	0.918
HABS, compound 2 concentration 0.625 µM	0.158	0.129	0.116	0.0817	0.117	0.224	0.337	0.487	0.849	0.948
HABS, compound 2 concentration 1.25 µM	0.352	0.341	0.305	0.259	0.336	0.387	0.482	0.573	0.912	0.98
HABS, compound 2 concentration 5 µM	0.731	0.725	0.702	0.703	0.706	0.689	0.739	0.792	0.974	0.997
HABS, compound 2 concentration 20 µM	0.963	0.956	0.951	0.939	0.938	0.927	0.938	0.957	0.998	1
HGGX6, compound 2 concentration 0.03906 µM	-0.0587	-0.133	-0.0423	-0.0209	0.0525	0.0544	0.136	0.172	0.433	0.608
HGGX6, compound 2 concentration 0.07812 µM	0.159	0.159	0.235	0.123	0.215	0.239	0.175	0.334	0.493	0.707
HGGX6, compound 2 concentration 0.15625 µM	0.0791	0.129	0.0602	0.134	0.0901	0.167	0.22	0.321	0.536	0.68
HGGX6, compound 2 concentration 0.3125 µM	0.217	0.19	0.195	0.14	0.172	0.319	0.322	0.391	0.572	0.713
HGGX6, compound 2 concentration 0.625 µM	0.371	0.37	0.329	0.373	0.258	0.373	0.432	0.457	0.633	0.748
HGGX6, compound 2 concentration 1.25 µM	0.572	0.523	0.53	0.483	0.467	0.501	0.53	0.544	0.679	0.799
HGGX6, compound 2 concentration 5 µM	0.709	0.727	0.714	0.72	0.705	0.725	0.719	0.747	0.798	0.86
HGGX6, compound 2 concentration 20 µM	0.867	0.859	0.851	0.861	0.86	0.852	0.866	0.859	0.887	0.947

CC1(C)OCCn2c1nc1c(N3CCOCC3)nc(-c3cnc(N)nc3)nc12 [GDC0084] + O=C(NOC[C@H](O)CO)c1ccc(F)c(F)c1Nc1ccc(I)cc1F [PD0325901]
growth inhibition
Conditions	compound 1 concentration 0.009766 µM	compound 1 concentration 0.01953 µM	compound 1 concentration 0.03906 µM	compound 1 concentration 0.07812 µM	compound 1 concentration 0.15625 µM	compound 1 concentration 0.3125 µM	compound 1 concentration 0.625 µM	compound 1 concentration 1.25 µM	compound 1 concentration 5 µM	compound 1 concentration 20 µM
HABS, compound 2 concentration 0.03906 µM	-0.37	-0.333	-0.284	-0.211	-0.192	-0.0322	0.16	0.363	0.773	0.974
HABS, compound 2 concentration 0.07812 µM	-0.231	-0.228	-0.183	-0.184	-0.0583	0.0322	0.187	0.365	0.734	0.954
HABS, compound 2 concentration 0.15625 µM	-0.225	-0.157	-0.11	-0.0914	0.000284	0.0786	0.237	0.371	0.734	0.943
HABS, compound 2 concentration 0.3125 µM	-0.0761	-0.0499	-0.0388	0.00861	0.0797	0.184	0.292	0.419	0.718	0.923
HABS, compound 2 concentration 0.625 µM	0.163	0.146	0.187	0.252	0.293	0.374	0.474	0.574	0.798	0.946
HABS, compound 2 concentration 1.25 µM	0.291	0.301	0.34	0.347	0.406	0.457	0.538	0.624	0.807	0.966
HABS, compound 2 concentration 5 µM	0.677	0.695	0.698	0.722	0.793	0.854	0.895	0.922	0.982	0.999
HABS, compound 2 concentration 20 µM	0.792	0.82	0.846	0.876	0.911	0.94	0.968	0.986	0.999	1
HGGX6, compound 2 concentration 0.03906 µM	-0.0592	-0.118	-0.0557	0.0473	0.0152	0.16	0.251	0.451	0.708	0.857
HGGX6, compound 2 concentration 0.07812 µM	0.064	-0.018	-0.00542	0.0583	0.162	0.132	0.254	0.475	0.717	0.883
HGGX6, compound 2 concentration 0.15625 µM	0.0118	0.0255	-0.000602	0.014	0.0815	0.2	0.302	0.466	0.711	0.857
HGGX6, compound 2 concentration 0.3125 µM	0.0282	0.112	0.0905	0.102	0.124	0.205	0.31	0.505	0.707	0.865
HGGX6, compound 2 concentration 0.625 µM	0.155	0.263	0.16	0.217	0.212	0.336	0.371	0.511	0.733	0.849
HGGX6, compound 2 concentration 1.25 µM	0.226	0.235	0.284	0.245	0.295	0.368	0.424	0.564	0.776	0.841
HGGX6, compound 2 concentration 5 µM	0.429	0.43	0.452	0.47	0.569	0.626	0.645	0.728	0.796	0.901
HGGX6, compound 2 concentration 20 µM	0.595	0.612	0.628	0.661	0.667	0.729	0.762	0.814	0.871	0.94
